Results as given in patent US20150284430A1, “APPLICATION OF SP PEPTIDE OR DERIVATIVE THEREOF IN PREPARING MEDICINES FOR PREVENTING OR TREATING ASTHMA” (priority 2012, published 2015).

System: allergic asthma mouse model induced by a combination of ovalbumin and adjuvant
Test: Lung tissue histopathologic examination and lesion score, ovalbumin/aluminium hydroxide allergic asthma mouse model
Format: in vivo
Details: positive medicines group, dexamethasone 0.9 μg/kg·d i.p. every other day x15 from week 15
Experimental: Preparation of sensitized liquid: prepare in a proportion of dissolving 10 ug ovalbumin and 2 mg aluminium hydroxide in 0.5 ml physiological saline, and use it right after being prepared.
On day 1, day 7 and day 14, the mice of all groups (the model group, the preventive administration groups, the treatment administration groups, and the positive medicines group) apart from the blank control group are injected intraperitoneally with 0.5 ml freshly prepared sensitized liquid. The blank control group is injected intraperitoneally with an equal volume of physiological saline.
Since day 21 (i.e., starting from week 4), the mice of all groups apart from the blank control group are placed in a 16 L closed container every fourth days, make the mice inhale 1 wt % ovalbumin physiological saline by ultrasonic nebulization, with an inhalation duration of 25 min/d and a nebulization flow rate of 3 ml/min, for twice a week to induce asthma, and the process continues until week 19. […]
Lung tissue lesions (including bronchia and perivascular interstitial edema, alveolar wall congestion or emphysema) are marked respectively as 1, 2, 3 and 4 in ascending order of severity, 0 stands for no obvious lesions, and 0.5 for extreme mild lesions. All scores are accumulated, and a mean score (±SD) of each mouse in each group is calculated, and a higher score indicates a more severe level of lesions. […]

C[C@@H]1C[C@H]2[C@@H]3CCC4=CC(=O)C=C[C@]4(C)[C@@]3(F)[C@@H](O)C[C@]2(C)[C@@]1(O)C(=O)CO [positive drug, dexamethasone]
inflammatory cells infiltration (histopathology, FIG. 6): infiltration with a few inflammatory cells
pulmonary interstitial edema (histopathology, FIG. 6): mild pulmonary interstitial edema
